Assay results published in US9302999B2, “Substituted triazoles as herbicides” (E. I. DU PONT DE NEMOURS AND COMPANY, priority 2012, dated 2016).

How the values were obtained:
Type in all cases: in vivo
[1] = tested on: arrowleaf sida (Sida rhombifolia); assay: Test E pre-/postemergence: arrowleaf sida; conditions: scale 0 to 100
Text: (§1) Seeds of plant species selected from corn (Zea mays), soybean (Glycine max), velvetleaf (Abutilon theophrasti), lambsquarters (Chenopodium album), poinsettia, wild (wild poinsettia, Euphorbia heterophylla), pigweed, palmer (palmer pigweed, Amaranthus palmeri), waterhemp (common waterhemp, Amaranthus rudis), smartweed (ladysthumb smartweed, Polygonum persicaria), surinam grass (Brachiaria decumbens), crabgrass, large (large crabgrass, Digitaria sanguinalis), crabgrass, Brazil (Brazilian crabgrass, Digitaria horizontalis), panicum, fall (fall panicum, Panicum dichotomiflorum), foxtail, giant (giant foxtail, Setaria faberii), foxtail, green (green foxtail, Setaria viridis), goosegrass (Eleusine indica), johnsongrass (Sorghum halepense), ragweed (common ragweed, Ambrosia elation), barnyardgrass (Echinochloa crus-galli), sandbur (southern sandbur, Cenchrus echinatus), arrowleaf sida (Sida rhombifolia), ryegrass, Italian (Italian ryegrass, Lolium multiflorum), dayflower, (VA) (Virginia dayflower, Commelina virginica), field bindweed (Convolvulus arvensis), cocklebur (common cocklebur, Xanthium strumarium), morningglory (Ipomoea coccinea), nightshade (eastern black nightshade, Solanum ptycanthum), kochia (Kochia scoparia), nutsedge, yellow (yellow nutsedge, Cyperus esculentus) and beggarticks (hairy beggarticks, Bidens pilosa) were planted into a silt loam soil and treated preemergence with test chemicals formulated in a non-phytotoxic solvent mixture which included a surfactant. At the same time, plants selected from these crop and weed species were planted in pots containing a growing medium comprising spaghnum peat moss, vermiculite, wetting agent and starter nutrients and treated with postemergence applications of some of the test chemicals formulated in the same manner. Plants ranged in height from 2 to 18 cm for postemergence treatments (1- to 4-leaf stage).
(§2) Treated plants and controls were maintained in a greenhouse for 14 to 21 days, after which time all species were compared to controls and visually evaluated. Plant response ratings, summarized in Table E, are based on a scale of 0 to 100 where 0 is no effect and 100 is complete control. A dash (-) response means no test result.

[2] = tested on: nutsedge, yellow (yellow nutsedge, Cyperus esculentus); assay: Test E pre-/postemergence: nutsedge, yellow; conditions: Preemergence, scale 0 to 100
How it was run: (§3)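 Visual injury scored 0–100 (0 no effect, 100 complete control) against controls after 14 to 21 days in greenhouse. Compounds formulated in surfactant-containing non-phytotoxic solvent, applied pre-emergence to seeded silt loam or post-emergence to 1- to 4-leaf plants in peat-based medium.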

[3] = tested on: panicum, fall (fall panicum, Panicum dichotomiflorum); assay: Test E pre-/postemergence: panicum, fall; conditions: scale 0 to 100
How it was run: as §3

[4] = tested on: velvetleaf (Abutilon theophrasti); assay: Test E pre-/postemergence: velvetleaf; conditions: Preemergence, scale 0 to 100
How it was run: as §3

kochia (Kochia scoparia) = assay: Test E pre-/postemergence: kochia; conditions: Preemergence, scale 0 to 100
Text: as §1, §2

[5] = tested on: pigweed, palmer (palmer pigweed, Amaranthus palmeri); assay: Test E pre-/postemergence: pigweed, palmer; conditions: scale 0 to 100
How it was run: as §3

[6] = tested on: smartweed (ladysthumb smartweed, Polygonum persicaria); assay: Test E pre-/postemergence: smartweed; conditions: scale 0 to 100
How it was run: as §3

[7] = tested on: beggarticks (hairy beggarticks, Bidens pilosa); assay: Test E pre-/postemergence: beggarticks; conditions: scale 0 to 100
How it was run: as §3

[8] = tested on: ragweed (common ragweed, Ambrosia elation); assay: Test E pre-/postemergence: ragweed; conditions: Preemergence, scale 0 to 100
Text: as §1, §2

COc1nn(-c2ccc(C(F)(F)F)cc2)nc1Cc1ccnc(C(F)(F)F)c1 [Compound 15, 4-[[5-methoxy-2-[4-(trifluoromethyl)phenyl]-2H-1,2,3-triazol-4-yl]methyl]-2-(trifluoromethyl)pyridine]
Plant response rating: Arrowleaf Sida ([1]; Preemergence, 31 g ai/ha): 30 | Plant response rating: Arrowleaf Sida ([1]; Preemergence, 62 g ai/ha): 40 | Plant response rating: Arrowleaf Sida ([1]; Preemergence, 125 g ai/ha): 50 | Plant response rating: Arrowleaf Sida ([1]; Preemergence, 250 g ai/ha): 60 | Plant response rating: Nutsedge, Yellow ([2]; 16 g ai/ha): 0 | Plant response rating: Nutsedge, Yellow ([2]; 31 g ai/ha): 0 | Plant response rating: Nutsedge, Yellow ([2]; 62 g ai/ha): 0 | Plant response rating: Nutsedge, Yellow ([2]; 125 g ai/ha): 0 | Plant response rating: Nutsedge, Yellow ([2]; 250 g ai/ha): 0 | Plant response rating: Panicum, Fall ([3]; Preemergence, 16 g ai/ha): 98 | Plant response rating: Panicum, Fall ([3]; Preemergence, 31 g ai/ha): 98 | Plant response rating: Panicum, Fall ([3]; Preemergence, 62 g ai/ha): 100 | Plant response rating: Panicum, Fall ([3]; Preemergence, 125 g ai/ha): 100 | Plant response rating: Panicum, Fall ([3]; Preemergence, 250 g ai/ha): 100 | Plant response rating: Velvetleaf ([4]; 16 g ai/ha): 20 | Plant response rating: Velvetleaf ([4]; 31 g ai/ha): 30 | Plant response rating: Velvetleaf ([4]; 62 g ai/ha): 65 | Plant response rating: Velvetleaf ([4]; 125 g ai/ha): 65 | Plant response rating: Velvetleaf ([4]; 250 g ai/ha): 95 | Plant response rating: Kochia (kochia (Kochia scoparia); 16 g ai/ha): 35 | Plant response rating: Kochia (kochia (Kochia scoparia); 31 g ai/ha): 65 | Plant response rating: Kochia (kochia (Kochia scoparia); 62 g ai/ha): 90 | Plant response rating: Kochia (kochia (Kochia scoparia); 125 g ai/ha): 100 | Plant response rating: Kochia (kochia (Kochia scoparia); 250 g ai/ha): 100 | Plant response rating: Pigweed, Palmer ([5]; Preemergence, 16 g ai/ha): 100 | Plant response rating: Pigweed, Palmer ([5]; Preemergence, 31 g ai/ha): 100 | Plant response rating: Pigweed, Palmer ([5]; Preemergence, 62 g ai/ha): 100 | Plant response rating: Pigweed, Palmer ([5]; Preemergence, 125 g ai/ha): 100 | Plant response rating: Pigweed, Palmer ([5]; Preemergence, 250 g ai/ha): 100 | Plant response rating: Smartweed ([6]; Preemergence, 31 g ai/ha): 60 | Plant response rating: Smartweed ([6]; Preemergence, 62 g ai/ha): 98 | Plant response rating: Smartweed ([6]; Preemergence, 125 g ai/ha): 98 | Plant response rating: Smartweed ([6]; Preemergence, 250 g ai/ha): 100 | Plant response rating: Beggarticks ([7]; Preemergence, 16 g ai/ha): 5 | Plant response rating: Beggarticks ([7]; Preemergence, 31 g ai/ha): 5 | Plant response rating: Beggarticks ([7]; Preemergence, 62 g ai/ha): 50 | Plant response rating: Beggarticks ([7]; Preemergence, 125 g ai/ha): 80 | Plant response rating: Beggarticks ([7]; Preemergence, 250 g ai/ha): 100 | Plant response rating: Ragweed ([8]; 16 g ai/ha): 0 | Plant response rating: Ragweed ([8]; 31 g ai/ha): 5 | Plant response rating: Ragweed ([8]; 125 g ai/ha): 30 | Plant response rating: Ragweed ([8]; 250 g ai/ha): 60

Cc1nn(-c2ccc(C(F)(F)F)cc2)nc1Oc1ccnc(C(F)(F)F)c1 [Compound 120]
Plant response rating: Arrowleaf Sida ([1]; Postemergence, 8 g ai/ha): 30 | Plant response rating: Arrowleaf Sida ([1]; Postemergence, 16 g ai/ha): 40 | Plant response rating: Arrowleaf Sida ([1]; Postemergence, 31 g ai/ha): 40 | Plant response rating: Arrowleaf Sida ([1]; Postemergence, 62 g ai/ha): 50 | Plant response rating: Arrowleaf Sida ([1]; Postemergence, 125 g ai/ha): 50 | Plant response rating: Arrowleaf Sida ([1]; Preemergence, 16 g ai/ha): 0 | Plant response rating: Arrowleaf Sida ([1]; Preemergence, 31 g ai/ha): 0 | Plant response rating: Arrowleaf Sida ([1]; Preemergence, 62 g ai/ha): 0 | Plant response rating: Arrowleaf Sida ([1]; Preemergence, 125 g ai/ha): 15 | Plant response rating: Arrowleaf Sida ([1]; Preemergence, 250 g ai/ha): 50 | Plant response rating: Nutsedge, Yellow ([2]; 16 g ai/ha): 0 | Plant response rating: Nutsedge, Yellow ([2]; 31 g ai/ha): 0 | Plant response rating: Nutsedge, Yellow ([2]; 62 g ai/ha): 0 | Plant response rating: Nutsedge, Yellow ([2]; 125 g ai/ha): 15 | Plant response rating: Nutsedge, Yellow ([2]; 250 g ai/ha): 25 | Plant response rating: Panicum, Fall ([3]; Postemergence, 8 g ai/ha): 5 | Plant response rating: Panicum, Fall ([3]; Postemergence, 16 g ai/ha): 10 | Plant response rating: Panicum, Fall ([3]; Postemergence, 31 g ai/ha): 10 | Plant response rating: Panicum, Fall ([3]; Postemergence, 62 g ai/ha): 20 | Plant response rating: Panicum, Fall ([3]; Postemergence, 125 g ai/ha): 25 | Plant response rating: Panicum, Fall ([3]; Preemergence, 16 g ai/ha): 95 | Plant response rating: Panicum, Fall ([3]; Preemergence, 31 g ai/ha): 95 | Plant response rating: Panicum, Fall ([3]; Preemergence, 62 g ai/ha): 100 | Plant response rating: Panicum, Fall ([3]; Preemergence, 125 g ai/ha): 100 | Plant response rating: Panicum, Fall ([3]; Preemergence, 250 g ai/ha): 100 | Plant response rating: Velvetleaf ([4]; 16 g ai/ha): 15 | Plant response rating: Velvetleaf ([4]; 31 g ai/ha): 30 | Plant response rating: Velvetleaf ([4]; 62 g ai/ha): 35 | Plant response rating: Velvetleaf ([4]; 125 g ai/ha): 50 | Plant response rating: Velvetleaf ([4]; 250 g ai/ha): 65 | Plant response rating: Kochia (kochia (Kochia scoparia); 16 g ai/ha): 0 | Plant response rating: Kochia (kochia (Kochia scoparia); 31 g ai/ha): 20 | Plant response rating: Kochia (kochia (Kochia scoparia); 62 g ai/ha): 50 | Plant response rating: Kochia (kochia (Kochia scoparia); 125 g ai/ha): 90 | Plant response rating: Kochia (kochia (Kochia scoparia); 250 g ai/ha): 100 | Plant response rating: Pigweed, Palmer ([5]; Postemergence, 8 g ai/ha): 90 | Plant response rating: Pigweed, Palmer ([5]; Postemergence, 16 g ai/ha): 90 | Plant response rating: Pigweed, Palmer ([5]; Postemergence, 31 g ai/ha): 90 | Plant response rating: Pigweed, Palmer ([5]; Postemergence, 62 g ai/ha): 95 | Plant response rating: Pigweed, Palmer ([5]; Postemergence, 125 g ai/ha): 100 | Plant response rating: Pigweed, Palmer ([5]; Preemergence, 16 g ai/ha): 65 | Plant response rating: Pigweed, Palmer ([5]; Preemergence, 31 g ai/ha): 100 | Plant response rating: Pigweed, Palmer ([5]; Preemergence, 62 g ai/ha): 100 | Plant response rating: Pigweed, Palmer ([5]; Preemergence, 125 g ai/ha): 100 | Plant response rating: Pigweed, Palmer ([5]; Preemergence, 250 g ai/ha): 100 | Plant response rating: Smartweed ([6]; Postemergence, 8 g ai/ha): 10 | Plant response rating: Smartweed ([6]; Postemergence, 16 g ai/ha): 10 | Plant response rating: Smartweed ([6]; Postemergence, 125 g ai/ha): 40 | Plant response rating: Beggarticks ([7]; Postemergence, 8 g ai/ha): 10 | Plant response rating: Beggarticks ([7]; Postemergence, 16 g ai/ha): 10 | Plant response rating: Beggarticks ([7]; Postemergence, 31 g ai/ha): 20 | Plant response rating: Beggarticks ([7]; Postemergence, 62 g ai/ha): 30 | Plant response rating: Beggarticks ([7]; Postemergence, 125 g ai/ha): 35 | Plant response rating: Beggarticks ([7]; Preemergence, 16 g ai/ha): 0 | Plant response rating: Beggarticks ([7]; Preemergence, 31 g ai/ha): 0 | Plant response rating: Beggarticks ([7]; Preemergence, 125 g ai/ha): 80 | Plant response rating: Ragweed ([8]; 16 g ai/ha): 0 | Plant response rating: Ragweed ([8]; 31 g ai/ha): 0 | Plant response rating: Ragweed ([8]; 62 g ai/ha): 30 | Plant response rating: Ragweed ([8]; 125 g ai/ha): 35 | Plant response rating: Ragweed ([8]; 250 g ai/ha): 80
